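The compound was tested at five concentrations on cells cultured in 96-well plates, with a 48-hour exposure period. At the GI50, growth is halved. TGI denotes the concentration required for complete inhibition of growth.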

For twelve molecules, TGI and GI50 results are on record in PubChem BioAssay (NCI).

Among the test systems are MCF7 breast; UACC-257 melanoma; NCI-H460 lung; OVCAR-8 ovarian; MDA-MB-435; UACC-62 melanoma; K-562 leukemia; ACHN renal; HCT-15 colon; SK-MEL-2 melanoma.
What all share (test): DTP human tumour cell line panel, 48 h

Take `C=C1C(=O)O[C@H]2C/C(C)=C/CC/C(C)=C/CC[C@@](C)(O)[C@@H](I)C[C@@H]12`: the concentration for total growth inhibition (TGI) (as a rule, the concentration at which net growth stops) in the assay with MCF7 breast came out at 25.1 µM; with UACC-257 melanoma, 25.5 µM; in the assay with NCI-H460 lung it was 27.2 µM; in the assay on OVCAR-8 ovarian, 5.74 µM; in the assay on MDA-MB-435 it was 23.2 µM; with UACC-62 melanoma it was 23.9 µM. Further, the total growth inhibition concentration (TGI) came out at 13.5 µM with K-562 leukemia, 21.5 µM with ACHN renal, 20.1 µM in the assay on HCT-15 colon and 25.8 µM with SK-MEL-2 melanoma.

For the molecule `S=c1nc2[nH]c3ccc(Br)cc3c2n[nH]1`, the TGI in the assay with MCF7 breast is 44.4 µM; with UACC-257 melanoma, > 100 µM; in the assay on NCI-H460 lung, > 100 µM; in the assay with OVCAR-8 ovarian it was > 100 µM; in the assay on MDA-MB-435, 38.4 µM; with UACC-62 melanoma, > 100 µM. Moreover, the TGI was > 100 µM with K-562 leukemia, > 100 µM with HCT-15 colon and 90 µM with SK-MEL-2 melanoma.

Turning to `Cc1cccc2nc3cccc(C(=O)NCCC[N+](C)(CCCNC(=O)c4cccc5nc6cccc(C)c6nc45)Cc4c([N+](=O)[O-])ncn4C)c3nc12`, the GI50 (commonly the concentration giving 50% growth inhibition) with MCF7 breast is 2.34 µM; in the assay on UACC-257 melanoma, 63 µM; in the assay on NCI-H460 lung it was 2.15 µM; with OVCAR-8 ovarian, 4.44 µM; in the assay on MDA-MB-435, 191 µM; in the assay with UACC-62 melanoma, 38.8 µM. The figures for the GI50 in the assay with ACHN renal, in the assay with HCT-15 colon and in the assay with SK-MEL-2 melanoma were 3.59 µM, 13.6 µM and 260 µM, respectively. The concentration for total growth inhibition (TGI) is 96.9 µM in the assay on MCF7 breast; > 1100 µM with UACC-257 melanoma; 257 µM in the assay with NCI-H460 lung; > 1100 µM in the assay with OVCAR-8 ovarian; > 1100 µM in the assay with MDA-MB-435; > 1100 µM with UACC-62 melanoma. In addition, the total growth inhibition concentration (TGI) in the assay with K-562 leukemia, with ACHN renal, with HCT-15 colon and in the assay on SK-MEL-2 melanoma was > 1100 µM throughout.

As to `Cc1cc(=O)n2nc(CSc3nnc(N)s3)sc2n1`, the concentration for total growth inhibition (TGI) in the assay with MCF7 breast, in the assay with UACC-257 melanoma, in the assay on NCI-H460 lung, in the assay with OVCAR-8 ovarian, in the assay with MDA-MB-435 and in the assay with UACC-62 melanoma was > 100 µM throughout. Besides, the TGI with K-562 leukemia, with ACHN renal, in the assay with HCT-15 colon and in the assay with SK-MEL-2 melanoma was > 100 µM in each case.

For the molecule `COC(=O)c1ccc(CCc2cc(O)ccc2O)cc1`, the TGI in the assay with MCF7 breast was > 62.2 µM; in the assay with UACC-257 melanoma it was 32.8 µM; in the assay on NCI-H460 lung it was > 68.4 µM; in the assay with OVCAR-8 ovarian, > 52.7 µM; in the assay on MDA-MB-435 it was 21.7 µM; in the assay with UACC-62 melanoma, 33.9 µM. Moreover, the total growth inhibition concentration (TGI) is > 31.6 µM in the assay with K-562 leukemia, 37.9 µM with ACHN renal, 27.5 µM in the assay with HCT-15 colon and 55.6 µM with SK-MEL-2 melanoma.

`CC(=Nc1c2ccccc2nc2ccccc12)N(C)C`: the TGI with MCF7 breast is 78.8 µM; with UACC-257 melanoma it was 43.5 µM; with OVCAR-8 ovarian, 52.4 µM; in the assay with MDA-MB-435, > 100 µM; in the assay with UACC-62 melanoma it was 32.9 µM; in the assay on K-562 leukemia, 25.4 µM. For the same molecule, the results for the concentration for total growth inhibition (TGI) in the assay with ACHN renal, with HCT-15 colon and in the assay with SK-MEL-2 melanoma were 76.4 µM, > 100 µM and 46 µM, respectively.

Regarding `NC(c1ccccc1)(C(F)(F)F)P1(=O)OC(=O)c2ccccc2O1` (stereo not given), the TGI in the assay with MCF7 breast, in the assay with UACC-257 melanoma, in the assay with NCI-H460 lung, in the assay with OVCAR-8 ovarian, with MDA-MB-435 and in the assay with UACC-62 melanoma was > 100 µM in each case. The total growth inhibition concentration (TGI) with K-562 leukemia, in the assay with ACHN renal, in the assay on HCT-15 colon and with SK-MEL-2 melanoma was > 100 µM each time.

Consider `C[C@H](CC[C@@H](O)C(C)(C)O)[C@H]1CC[C@@]2(C)[C@@H]3CC=C4[C@@H](CC[C@H](O)C4(C)C)[C@]3(C)C(=O)C[C@]12C`, for which the TGI in the assay with MCF7 breast, with UACC-257 melanoma, with NCI-H460 lung, with OVCAR-8 ovarian, with MDA-MB-435 and in the assay on K-562 leukemia was > 50 µM in each case. For the same molecule, the TGI in the assay on ACHN renal, in the assay with HCT-15 colon and with SK-MEL-2 melanoma was > 50 µM throughout.

Regarding `C=CCN(c1cc(OCc2ccccc2)c(NC(C)=O)cc1[N+](=O)[O-])S(C)(=O)=O`, the concentration for total growth inhibition (TGI) in the assay on MCF7 breast is > 100 µM; in the assay on UACC-257 melanoma, > 100 µM; with NCI-H460 lung, > 100 µM; in the assay with OVCAR-8 ovarian, 50.3 µM; with MDA-MB-435 it was > 100 µM; in the assay with UACC-62 melanoma, > 100 µM. In addition, the TGI is > 100 µM in the assay on K-562 leukemia, > 100 µM in the assay on ACHN renal, > 100 µM in the assay on HCT-15 colon and 73.1 µM in the assay on SK-MEL-2 melanoma.

For `COC(=O)c1ccccc1C#CCCCOS(C)(=O)=O`, the total growth inhibition concentration (TGI) in the assay on MCF7 breast, with UACC-257 melanoma, in the assay on NCI-H460 lung, in the assay on OVCAR-8 ovarian, in the assay with MDA-MB-435 and in the assay on UACC-62 melanoma was > 10 µM throughout. Besides, the concentration for total growth inhibition (TGI) in the assay on K-562 leukemia, in the assay with ACHN renal, with HCT-15 colon and in the assay with SK-MEL-2 melanoma was > 10 µM in each case.

On to `C1#Cc2ccccc2OCCOc2ccccc2C#Cc2ccccc2OCCOc2ccccc21`, for which the TGI in the assay on MCF7 breast is > 100 µM; with UACC-257 melanoma, > 100 µM; with NCI-H460 lung, > 100 µM; with OVCAR-8 ovarian it was 28.3 µM; in the assay on MDA-MB-435, > 100 µM; in the assay on UACC-62 melanoma, > 100 µM. For the same molecule, the concentration for total growth inhibition (TGI) was 24.3 µM in the assay on K-562 leukemia, 37.9 µM in the assay on ACHN renal, > 100 µM in the assay on HCT-15 colon and > 100 µM in the assay on SK-MEL-2 melanoma.

`CO/C(=N\N=C\c1ccc(Cl)cc1Cl)c1ccncc1`: the TGI with MCF7 breast, in the assay with UACC-257 melanoma, in the assay on NCI-H460 lung, with OVCAR-8 ovarian, with MDA-MB-435 and in the assay on K-562 leukemia was > 10 µM each time. For the same molecule, the concentration for total growth inhibition (TGI) in the assay with ACHN renal, in the assay with HCT-15 colon and in the assay on SK-MEL-2 melanoma was > 10 µM throughout.
